Data set [1] in a line: wn = mass fraction of the nth substance listed. Particulars: 101.3 kPa, Liquid, Vibrating tube method.
Data set [2] is described as follows: refractive index (Na D-line) (dimensionless); wn = mass fraction of the nth substance listed. The conditions noted are these: 101.3 kPa, Liquid, Standard Abbe refractometry.

SMILES strings stand for the structures. Numbers after ± are expanded uncertainties.

For orientation: mass density means the mass of a sample divided by its volume. The term refractive index denotes the speed of light in vacuum divided by its phase velocity in the sample. Take `[Cl-].[Na+]` [sodium chloride] + O: the mass density in data set [1] (288.15 K, w1 = 0.2622) worked out at 1201 ± 4.2 kg/m3; in data set [1] (298.15 K, w1 = 0.2625), 1197.8 ± 4.2 kg/m3; in data set [1] (308.15 K, w1 = 0.2666) it was 1193.6 ± 4.2 kg/m3. Further, the refractive index in data set [2] (288.15 K, w1 = 0.2622) is on record as 1.3811 ± 0.0005; in data set [2] (298.15 K, w1 = 0.2625), 1.3795 ± 0.0005; in data set [2] (308.15 K, w1 = 0.2666), 1.3781 ± 0.0005.
Take `[Cl-].[Rb+]` [rubidium chloride] + O: the mass density was determined as 1480.4 ± 4.3 kg/m3 in data set [1] (288.15 K, w1 = 0.4695); 1500.3 ± 4.3 kg/m3 in data set [1] (298.15 K, w1 = 0.4841); 1517.5 ± 4.3 kg/m3 in data set [1] (308.15 K, w1 = 0.5041). Also, the refractive index was 1.3874 ± 0.0005 in data set [2] (288.15 K, w1 = 0.4695); 1.3883 ± 0.0005 in data set [2] (298.15 K, w1 = 0.4841); 1.3894 ± 0.0005 in data set [2] (308.15 K, w1 = 0.5041).

These data come from the NIST ThermoML archive (doi:10.1016/j.jct.2016.12.007).
